Assay results from ChEMBL document CHEMBL4680133, “Novel nitroimidazole derivatives evaluated for their trypanocidal, cytotoxic, and genotoxic activities” (Eur J Med Chem, 2020).

Key:
[1] = system: HepG2; assay: Cytotoxicity against human HepG2 cells at 21.3 to 427 uM measured after 24 hrs by LDH assay; type: cell-based; conditions: hepg2, 24 h, dose 21.3-427 µM
[2] = Toxicity in Salmonella typhimurium YG1024 at 5 to 100 ug/plate after 20 mins by colony counting method; conditions: salmonella enterica subsp. enterica serovar typhimurium, dose 5-100 µg
[3] = system: RAW264.7; assay: Genotoxicity in mouse RAW264.7 cells assessed as mitotic index at 213 uM measured after 24 hrs by micronucleus test (reference value: 40 to 249); type: toxicity, cell-based; conditions: raw264.7, 24 h
[4] = system: RAW264.7; assay: Genotoxicity in mouse RAW264.7 cells assessed as mitotic index at 2135 uM measured after 24 hrs by micronucleus test (reference value: 40 to 249); type: toxicity, cell-based; conditions: raw264.7, 24 h
[5] = system: RAW264.7; assay: Genotoxicity in mouse RAW264.7 cells assessed as mitotic index at 4270 uM measured after 24 hrs by micronucleus test (reference value: 40 to 249); type: toxicity, cell-based; conditions: raw264.7, 24 h
[6] = system: RAW264.7; assay: Genotoxicity in mouse RAW264.7 cells assessed as number of micronucleated cells at 213 uM measured after 24 hrs by micronucleus test (reference value: 12 to 15); type: toxicity, cell-based; conditions: raw264.7, 24 h
[7] = system: RAW264.7; assay: Genotoxicity in mouse RAW264.7 cells assessed as number of micronucleated cells at 427 uM measured after 24 hrs by micronucleus test (reference value: 12 to 15); type: toxicity, cell-based; conditions: raw264.7, 24 h
[8] = system: RAW264.7; assay: Genotoxicity in mouse RAW264.7 cells assessed as number of micronucleated cells at 2135 uM measured after 24 hrs by micronucleus test (reference value: 12 to 15); type: toxicity, cell-based; conditions: raw264.7, 24 h
[9] = system: RAW264.7; assay: Genotoxicity in mouse RAW264.7 cells assessed as number of micronucleated cells at 4270 uM measured after 24 hrs by micronucleus test (reference value: 12 to 15); type: toxicity, cell-based; conditions: raw264.7, 24 h
[10] = Genotoxicity in mouse RAW264.7 cells assessed as survival at 2135 uM measured after 24 hrs by micronucleus test (reference value: 100%); type: toxicity, cell-based; conditions: read-out: Survival
[11] = Genotoxicity in mouse RAW264.7 cells assessed as survival at 4270 uM measured after 24 hrs by micronucleus test (reference value: 100%); type: toxicity, cell-based; conditions: read-out: Survival
[12] = system: HepG2; assay: Genotoxicity in human HepG2 assessed as mitotic index at 213 uM measured after 24 hrs by micronucleus test (reference value: 61 to 108); type: toxicity, cell-based; conditions: hepg2, 24 h
[13] = system: HepG2; assay: Genotoxicity in human HepG2 assessed as mitotic index at 427 uM measured after 24 hrs by micronucleus test (reference value: 61 to 108); type: toxicity, cell-based; conditions: hepg2, 24 h
[14] = system: HepG2; assay: Genotoxicity in human HepG2 assessed as mitotic index at 4270 uM measured after 24 hrs by micronucleus test (reference value: 61 to 108); type: toxicity, cell-based; conditions: hepg2, 24 h
[15] = system: HepG2; assay: Genotoxicity in human HepG2 assessed as number of micronucleated cells at 213 uM measured after 24 hrs by micronucleus test (reference value: 14 to 18); type: toxicity, cell-based; conditions: hepg2, 24 h
[16] = system: HepG2; assay: Genotoxicity in human HepG2 assessed as number of micronucleated cells at 427 uM measured after 24 hrs by micronucleus test (reference value: 14 to 18); type: toxicity, cell-based; conditions: hepg2, 24 h
[17] = system: HepG2; assay: Genotoxicity in human HepG2 assessed as number of micronucleated cells at 2135 uM measured after 24 hrs by micronucleus test (reference value: 14 to 18); type: toxicity, cell-based; conditions: hepg2, 24 h
[18] = system: HepG2; assay: Genotoxicity in human HepG2 assessed as number of micronucleated cells at 4270 uM measured after 24 hrs by micronucleus test (reference value: 14 to 18); type: toxicity, cell-based; conditions: hepg2, 24 h
[19] = Genotoxicity in human HepG2 assessed as survival at 213 uM measured after 24 hrs by micronucleus test (reference value: 100%); type: toxicity, cell-based; conditions: HepG2 cells, read-out: Survival
[20] = Genotoxicity in human HepG2 assessed as survival at 427 uM measured after 24 hrs by micronucleus test (reference value: 100%); type: toxicity, cell-based; conditions: HepG2 cells, read-out: Survival
[21] = Genotoxicity in human HepG2 assessed as survival at 4270 uM measured after 24 hrs by micronucleus test (reference value: 100%); type: toxicity, cell-based; conditions: HepG2 cells, read-out: Survival
[22] = system: HepG2; assay: Cytotoxicity against human HepG2 cells assessed as induction of membrane damage at 17.5 to 350 uM measured after 24 hrs by LDH assay; type: cell-based; conditions: hepg2, 24 h, dose 17.5-350 µM
[23] = system: RAW264.7; assay: Genotoxicity in mouse RAW264.7 cells assessed as mitotic index at 175 uM measured after 24 hrs by micronucleus test (reference value: 40 to 249); type: toxicity, cell-based; conditions: raw264.7, 24 h
[24] = system: RAW264.7; assay: Genotoxicity in mouse RAW264.7 cells assessed as mitotic index at 350 uM measured after 24 hrs by micronucleus test (reference value: 40 to 249); type: toxicity, cell-based; conditions: raw264.7, 24 h
[25] = system: RAW264.7; assay: Genotoxicity in mouse RAW264.7 cells assessed as mitotic index at 1750 uM measured after 24 hrs by micronucleus test (reference value: 40 to 249); type: toxicity, cell-based; conditions: raw264.7, 24 h
[26] = system: RAW264.7; assay: Genotoxicity in mouse RAW264.7 cells assessed as number of micronucleated cells at 175 uM measured after 24 hrs by micronucleus test (reference value: 12 to 15); type: toxicity, cell-based; conditions: raw264.7, 24 h
[27] = system: RAW264.7; assay: Genotoxicity in mouse RAW264.7 cells assessed as number of micronucleated cells at 350 uM measured after 24 hrs by micronucleus test (reference value: 12 to 15); type: toxicity, cell-based; conditions: raw264.7, 24 h
[28] = system: RAW264.7; assay: Genotoxicity in mouse RAW264.7 cells assessed as number of micronucleated cells at 1750 uM measured after 24 hrs by micronucleus test (reference value: 12 to 15); type: toxicity, cell-based; conditions: raw264.7, 24 h
[29] = system: RAW264.7; assay: Genotoxicity in mouse RAW264.7 cells assessed as number of micronucleated cells at 3500 uM measured after 24 hrs by micronucleus test (reference value: 12 to 15); type: toxicity, cell-based; conditions: raw264.7, 24 h
[30] = Genotoxicity in mouse RAW264.7 cells assessed as survival at 175 uM measured after 24 hrs by micronucleus test (reference value: 100%); type: toxicity, cell-based; conditions: read-out: Survival
[31] = Genotoxicity in mouse RAW264.7 cells assessed as survival at 3500 uM measured after 24 hrs by micronucleus test (reference value: 100%); type: toxicity, cell-based; conditions: read-out: Survival
[32] = system: HepG2; assay: Genotoxicity in human HepG2 assessed as mitotic index at 350 uM measured after 24 hrs by micronucleus test (reference value: 61 to 108); type: toxicity, cell-based; conditions: hepg2, 24 h
[33] = system: HepG2; assay: Genotoxicity in human HepG2 assessed as mitotic index at 1750 uM measured after 24 hrs by micronucleus test (reference value: 61 to 108); type: toxicity, cell-based; conditions: hepg2, 24 h
[34] = system: HepG2; assay: Genotoxicity in human HepG2 assessed as number of micronucleated cells at 350 uM measured after 24 hrs by micronucleus test (reference value: 14 to 18); type: toxicity, cell-based; conditions: hepg2, 24 h
[35] = system: HepG2; assay: Genotoxicity in human HepG2 assessed as number of micronucleated cells at 1750 uM measured after 24 hrs by micronucleus test (reference value: 14 to 18); type: toxicity, cell-based; conditions: hepg2, 24 h
[36] = system: HepG2; assay: Genotoxicity in human HepG2 assessed as number of micronucleated cells at 3500 uM measured after 24 hrs by micronucleus test (reference value: 14 to 18); type: toxicity, cell-based; conditions: hepg2, 24 h
[37] = Genotoxicity in human HepG2 assessed as survival at 1750 uM measured after 24 hrs by micronucleus test (reference value: 100%); type: toxicity, cell-based; conditions: HepG2 cells, read-out: Survival
[38] = Genotoxicity in human HepG2 assessed as survival at 3500 uM measured after 24 hrs by micronucleus test (reference value: 100%); type: toxicity, cell-based; conditions: HepG2 cells, read-out: Survival

SMILES: Cn1cnc([N+](=O)[O-])c1-n1cc(C2CC2)nn1
- Activity [1]: Non-Toxic
- Activity [2]: Non-Toxic
- Activity_index [3]: 30
- Activity_index [4]: 37
- Activity_index [5]: 36
- Activity [6]: 12
- Activity [7]: 11
- Activity [8]: 19
- Activity [9]: 20
- viability at 24 h, 2135 µM [10]: 96%
- viability at 24 h, 4270 µM [11]: 94%
- Activity_index [12]: 97
- Activity_index [13]: 106
- Activity_index [14]: 124
- Activity [15]: 17
- Activity [16]: 17
- Activity [17]: 19
- Activity [18]: 27
- viability at 24 h, 213 µM [19]: 99%
- viability at 24 h, 427 µM [20]: 99%
- viability at 24 h, 4270 µM [21]: 91%

SMILES: CCCCCc1ccc(-c2cn(-c3c([N+](=O)[O-])ncn3C)nn2)cc1
- Activity [22]: Toxic
- Activity_index [23]: 245
- Activity_index [24]: 223
- Activity_index [25]: 166
- Activity [26]: 11
- Activity [27]: 13
- Activity [28]: 23
- Activity [29]: 39
- viability at 24 h, 175 µM [30]: 99%
- viability at 24 h, 3500 µM [31]: 71%
- Activity_index [32]: 91
- Activity_index [33]: 59
- Activity [34]: 25
- Activity [35]: 35
- Activity [36]: 42
- viability at 24 h, 1750 µM [37]: 80%
- viability at 24 h, 3500 µM [38]: 64%
